# Patent publication US12391664B2, “GluN2C/D subunit selective antagonists of the N-methyl-D-aspartate receptor” (Emory University, priority 2018, dated 2025)
# Assays:
# GluN2C subunit = GluN2C subunit (Homo sapiens, UniProt Q14957); conditions: read-out: EC50 (potentiation at GluN2C subunit); cited from earlier work
# [1] = target: NMDA receptors that contain GluN2B (Homo sapiens, UniProt Q05586+Q13224); conditions: cited from earlier work
# GluN2C- and GluN2D = conditions: GluN2C- and GluN2D-selective potentiator; read-out: EC50 (potentiation); cited from earlier work
# [2] = target: T1, recombinant rat GluN1/GluN2C (Rattus norvegicus, UniProt Q00961); experiment: Two-electrode voltage-clamp recordings in Xenopus laevis oocytes, GluN2C; assay type: cell-based; conditions: oocytes, 100 μM glutamate and 30 μM glycine
# T1 construct: expressed in transfected cells; host or cells: Xenopus laevis oocytes injected with cRNA (GluN1:GluN2 ratio 1:2)
# T1 sequence (Q00961 20-1237, other chains not shown): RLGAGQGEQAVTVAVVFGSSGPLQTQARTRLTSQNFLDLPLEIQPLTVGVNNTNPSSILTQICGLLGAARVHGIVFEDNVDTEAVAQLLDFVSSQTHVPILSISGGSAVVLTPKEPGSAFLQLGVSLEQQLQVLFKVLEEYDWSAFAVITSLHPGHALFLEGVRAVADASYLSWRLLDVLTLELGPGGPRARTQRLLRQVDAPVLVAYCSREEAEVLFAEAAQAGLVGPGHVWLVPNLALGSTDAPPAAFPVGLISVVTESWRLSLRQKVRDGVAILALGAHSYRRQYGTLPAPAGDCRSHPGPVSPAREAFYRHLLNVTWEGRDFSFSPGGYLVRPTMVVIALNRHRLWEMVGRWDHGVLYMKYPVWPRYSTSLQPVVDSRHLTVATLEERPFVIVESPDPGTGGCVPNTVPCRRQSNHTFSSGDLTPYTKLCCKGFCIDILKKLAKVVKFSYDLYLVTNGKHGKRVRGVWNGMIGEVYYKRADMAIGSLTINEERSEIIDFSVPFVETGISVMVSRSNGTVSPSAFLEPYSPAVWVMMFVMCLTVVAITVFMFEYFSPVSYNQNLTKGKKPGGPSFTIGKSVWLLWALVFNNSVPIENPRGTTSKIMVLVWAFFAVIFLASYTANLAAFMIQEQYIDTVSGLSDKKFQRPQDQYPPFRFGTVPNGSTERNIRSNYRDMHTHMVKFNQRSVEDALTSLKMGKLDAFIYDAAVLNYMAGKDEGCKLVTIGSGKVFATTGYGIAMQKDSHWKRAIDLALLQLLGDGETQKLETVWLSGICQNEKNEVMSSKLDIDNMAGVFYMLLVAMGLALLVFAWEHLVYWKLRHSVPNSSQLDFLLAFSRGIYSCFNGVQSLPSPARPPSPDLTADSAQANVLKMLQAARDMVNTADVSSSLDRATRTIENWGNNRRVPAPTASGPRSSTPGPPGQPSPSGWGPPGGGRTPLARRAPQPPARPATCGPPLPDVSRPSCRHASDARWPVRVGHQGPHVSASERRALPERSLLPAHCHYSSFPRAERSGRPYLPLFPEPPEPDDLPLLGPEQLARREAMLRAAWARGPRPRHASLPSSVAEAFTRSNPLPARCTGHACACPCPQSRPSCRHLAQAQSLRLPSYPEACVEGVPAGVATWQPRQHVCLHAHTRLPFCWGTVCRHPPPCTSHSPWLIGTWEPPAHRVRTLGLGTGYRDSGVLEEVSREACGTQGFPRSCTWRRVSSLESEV
# Outline: (§1)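 Oocytes injected with rat GluN1/GluN2 cRNA (1:2), held 2–5 days at 15–17 °C, clamped at −40 mV in Ba2+-containing recording solution, pH 7.4, 23 °C. Compounds applied (up to 100 μM) with 100 μM glutamate plus 30 μM glycine. IC50 and Hill slope from concentration-response fits of averaged current inhibition.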
# [3] = system: recombinant GluN2A-D subunits; experiment: Two-electrode voltage-clamp recordings, statements on all receptors; assay type: cell-based, rat
# Procedure: All target compounds were evaluated for activity by the Traynelis laboratory at Emory University using two-electrode voltage-clamp recordings performed in Xenopus laevis oocytes expressing recombinant GluN2A-D subunits (Table 1). […] Two ester compounds 997-65 and 997-66 also performed no inhibition at GluN2A to GluN2D receptors. […] Consequently, for the compounds that Acker et al. already published, it was necessary to increase the concentration to 100 μM when collecting data for a concentration effect curve. […] Therefore, under this condition, we can only conclude that compound 997-67 remained potent at GluN2C/D-containing receptors, but its selectivity over GluN2A- and GluN2B-containing receptors could not be compared to 997-57. […] Finally, replacing the carboxylic acid to the bio-isostere amide yielded compounds 997-96 and 997-115, which dropped the potency 2- to 4-fold in comparison to their corresponding acids 997-74 and 997-114.
# Two-electrode voltage-clamp recordings were performed in Xenopus laevis oocytes that were injected with mRNA to express recombinant rat GluN1/GluN2A, GluN1/GluN2B, GluN1/GluN2C, and GluN1/GluN2D. The recordings using unfertilized oocytes from Xenopus laevis were permitted by Emory University Institutional Animal Care and Use Committee (IACUC). An automatic injector (Nanoject II, Drummond Scientific) was used for cRNA injection using the pipettes filled with mineral oil. The cRNA that transcribed in vitro via the mMessage Machine kit (Ambion) was diluted with nuclease-free water, and then injected at GluN1/GluN2 with a ratio of 1:2. The oocytes were stored in Barth's solution that contained 88 mM NaCl, 5.0 mM Tris-HCl, 2.4 mM NaHCO3, 1.0 mM KCl, 0.84 mM MgSO4, 0.41 mM CaCl2, 0.33 mM Ca(NO3)2, 0.1 mg/ml gentamycin sulfate, 1.0 U/ml penicillin, and 1 μg/ml streptomycin at a pH of 7.4 and temperatures of 15-17° C. for two to five days before the two-electrode voltage-clamp recordings. When recording, the oocytes were placed in a perfusion chamber and continually washed with the recording solution comprised of 90 mM NaCl, 1.0 mM KCl, 0.50 mM BaCl2, 0.005 mM EDTA, and 10 mM HEPES at a pH of 7.4 and a temperature of 23° C. Glass electrodes with a tip resistance of 0.5 to 2.5 MΩ were obtained from thin-walled glass capillary tubes. Voltage electrodes and current electrodes were filled with 0.3 M and 3.0 M KCl, respectively. The recordings were executed with the oocytes membrane potential holding at −40 m V by an OC-725 amplifier (Warner Instrument Co). All compounds were dissolved in dimethyl sulfoxide (DMSO) as 20 mM stock solutions and future diluted to reach the desired concentration (0.05-0.5% (vol/vol) DMSO) in recording solution comprised of 30 μM glycine and 100 μM glutamate. Each compound was recorded 3-7 times in the least 4 oocytes from at least 2 different Xenopus laevis.
# To evaluate the inhibition of compounds, the concentration-response curve was fitted with the average two-electrode voltage-clamp recording results with the equation
# [formula] • where IC50 is the concentration of compounds that inhibit half maximal of the current response and N is the Hill slope.
# [4] = target: T2, recombinant rat GluN1/GluN2D (Rattus norvegicus, UniProt Q62645); experiment: Two-electrode voltage-clamp recordings in Xenopus laevis oocytes, GluN2D; assay type: cell-based; conditions: oocytes, 100 μM glutamate and 30 μM glycine
# T2 construct: expressed in transfected cells; host or cells: Xenopus laevis oocytes injected with cRNA (GluN1:GluN2 ratio 1:2)
# T2 sequence (Q62645 28-1323, other chains not shown): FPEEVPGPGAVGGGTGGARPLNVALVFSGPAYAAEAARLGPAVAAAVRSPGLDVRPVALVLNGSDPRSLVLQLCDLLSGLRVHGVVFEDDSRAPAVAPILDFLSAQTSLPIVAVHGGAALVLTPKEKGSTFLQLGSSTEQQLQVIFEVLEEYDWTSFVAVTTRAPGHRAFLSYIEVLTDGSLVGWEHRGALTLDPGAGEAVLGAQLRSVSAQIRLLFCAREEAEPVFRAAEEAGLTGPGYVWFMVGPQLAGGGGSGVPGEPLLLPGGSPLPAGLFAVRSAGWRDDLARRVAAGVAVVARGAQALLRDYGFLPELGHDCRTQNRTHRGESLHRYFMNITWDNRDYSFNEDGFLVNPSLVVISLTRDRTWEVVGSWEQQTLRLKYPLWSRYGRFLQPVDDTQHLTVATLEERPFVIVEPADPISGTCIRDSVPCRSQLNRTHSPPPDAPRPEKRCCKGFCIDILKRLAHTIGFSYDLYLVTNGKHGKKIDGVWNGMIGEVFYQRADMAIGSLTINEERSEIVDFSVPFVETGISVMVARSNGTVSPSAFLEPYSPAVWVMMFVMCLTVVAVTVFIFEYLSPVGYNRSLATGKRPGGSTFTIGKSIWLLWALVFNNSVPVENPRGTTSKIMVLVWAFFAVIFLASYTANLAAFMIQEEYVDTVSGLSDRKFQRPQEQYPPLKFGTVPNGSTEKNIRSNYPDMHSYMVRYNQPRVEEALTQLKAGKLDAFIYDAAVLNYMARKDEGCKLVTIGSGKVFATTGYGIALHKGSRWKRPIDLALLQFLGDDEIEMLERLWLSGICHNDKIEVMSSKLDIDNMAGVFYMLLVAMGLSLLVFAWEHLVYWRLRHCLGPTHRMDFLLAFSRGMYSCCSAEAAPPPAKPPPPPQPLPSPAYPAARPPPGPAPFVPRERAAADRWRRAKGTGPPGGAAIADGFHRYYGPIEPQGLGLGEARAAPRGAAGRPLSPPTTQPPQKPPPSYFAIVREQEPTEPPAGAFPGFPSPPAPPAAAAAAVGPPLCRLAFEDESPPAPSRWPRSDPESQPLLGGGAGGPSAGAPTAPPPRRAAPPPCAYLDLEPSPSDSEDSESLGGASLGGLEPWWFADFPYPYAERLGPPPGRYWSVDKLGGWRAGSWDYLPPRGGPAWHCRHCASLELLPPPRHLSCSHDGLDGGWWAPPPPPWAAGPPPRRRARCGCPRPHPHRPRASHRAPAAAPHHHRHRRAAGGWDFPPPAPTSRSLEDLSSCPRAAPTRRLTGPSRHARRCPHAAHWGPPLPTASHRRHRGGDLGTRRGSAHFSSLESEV
# Outline: as §1
# [5] = target: T3, recombinant rat GluN1/GluN2B (Rattus norvegicus, UniProt Q00960); experiment: Two-electrode voltage-clamp recordings in Xenopus laevis oocytes, GluN2B; assay type: cell-based; conditions: oocytes, 100 μM glutamate and 30 μM glycine
# T3 construct: expressed in transfected cells; host or cells: Xenopus laevis oocytes injected with cRNA (GluN1:GluN2 ratio 1:2)
# Outline: as §1
# [6] = target: T4, recombinant rat GluN1/GluN2A (Rattus norvegicus, UniProt Q00959); experiment: Two-electrode voltage-clamp recordings in Xenopus laevis oocytes, GluN2A; assay type: cell-based; conditions: oocytes, 100 μM glutamate and 30 μM glycine
# T4 construct: expressed in transfected cells; host or cells: Xenopus laevis oocytes injected with cRNA (GluN1:GluN2 ratio 1:2)
# T4 sequence (Q00959 23-1464, other chains not shown): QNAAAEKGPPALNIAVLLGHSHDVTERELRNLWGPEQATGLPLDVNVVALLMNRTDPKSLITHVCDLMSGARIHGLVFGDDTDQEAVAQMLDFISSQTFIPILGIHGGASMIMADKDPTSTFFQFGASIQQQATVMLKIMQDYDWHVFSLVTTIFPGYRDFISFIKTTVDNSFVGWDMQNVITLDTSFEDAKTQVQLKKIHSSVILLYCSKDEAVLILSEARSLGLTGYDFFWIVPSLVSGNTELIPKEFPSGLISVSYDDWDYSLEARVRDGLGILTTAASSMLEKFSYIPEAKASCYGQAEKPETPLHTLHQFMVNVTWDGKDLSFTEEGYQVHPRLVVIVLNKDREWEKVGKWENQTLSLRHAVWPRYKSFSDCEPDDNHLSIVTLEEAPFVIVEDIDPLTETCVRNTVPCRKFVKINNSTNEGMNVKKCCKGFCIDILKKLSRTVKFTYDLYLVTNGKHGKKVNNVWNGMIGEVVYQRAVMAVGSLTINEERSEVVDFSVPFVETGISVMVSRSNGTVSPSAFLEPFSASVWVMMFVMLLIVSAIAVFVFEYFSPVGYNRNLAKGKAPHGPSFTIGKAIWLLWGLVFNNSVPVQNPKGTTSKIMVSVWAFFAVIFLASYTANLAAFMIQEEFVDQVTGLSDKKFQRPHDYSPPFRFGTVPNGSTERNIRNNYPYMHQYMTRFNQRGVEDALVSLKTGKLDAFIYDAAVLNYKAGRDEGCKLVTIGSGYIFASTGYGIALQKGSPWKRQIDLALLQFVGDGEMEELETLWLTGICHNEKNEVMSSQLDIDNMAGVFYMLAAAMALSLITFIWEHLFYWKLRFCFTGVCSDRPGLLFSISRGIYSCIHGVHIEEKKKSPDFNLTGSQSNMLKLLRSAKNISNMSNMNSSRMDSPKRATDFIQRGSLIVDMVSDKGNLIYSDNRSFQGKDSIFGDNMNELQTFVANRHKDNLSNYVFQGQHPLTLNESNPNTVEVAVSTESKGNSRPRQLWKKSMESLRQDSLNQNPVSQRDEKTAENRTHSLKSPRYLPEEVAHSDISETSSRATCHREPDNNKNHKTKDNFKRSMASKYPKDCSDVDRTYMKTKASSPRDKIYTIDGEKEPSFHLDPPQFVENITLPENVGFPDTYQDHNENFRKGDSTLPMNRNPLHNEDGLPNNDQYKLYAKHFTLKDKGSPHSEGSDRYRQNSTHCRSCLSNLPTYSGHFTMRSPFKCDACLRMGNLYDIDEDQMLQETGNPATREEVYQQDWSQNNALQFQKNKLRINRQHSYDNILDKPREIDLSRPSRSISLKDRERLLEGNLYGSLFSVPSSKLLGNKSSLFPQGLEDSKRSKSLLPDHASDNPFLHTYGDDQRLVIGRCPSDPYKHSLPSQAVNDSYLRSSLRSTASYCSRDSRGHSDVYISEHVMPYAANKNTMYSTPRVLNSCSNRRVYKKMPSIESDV
# Outline: as §1
structure (smiles),measurement,setting,value
COC(=O)c1ccc(C2C(C(C)=O)=C(O)C(=O)N2CCc2c(C)[nH]c3ccccc23)cc1 (centres unmarked) [PYD-106],EC50,GluN2C subunit,13 µM
CC(C(O)c1ccc(O)cc1)N1CCC(Cc2ccccc2)CC1 (centres unmarked) [Ifenprodil],"fold more potent at GluN2B than at GluN2A, GluN2C or GluN2D containing receptors",[1],approximately 200 fold
"COc1ccc(OCC2c3cc(OC)c(OC)cc3CCN2C(=O)c2cccc(Cl)c2)cc1 (centres unmarked) [CIQ, (3-chlorophenyl)(6,7-dimethoxy-1-((4-methoxyphenoxy)methyl)3,4-dihydroisoquinolin-2(1H)-yl)methanone]",EC50,GluN2C- and GluN2D,3 to 6 µM
"O=C(O)CCC(=O)N1N=C(c2c(-c3ccc(Cl)cc3)c3ccccc3[nH]c2=O)CC1c1ccncc1 (centres unmarked) [997-79, 4-(3-(4-(4-chlorophenyl)-2-oxo-1,2-dihydroquinolin-3-yl)-5-(pyridin-4-yl)-4,5-dihydro-1H-pyrazol-1-yl)-4-oxobutanoic acid]",GluN2C IC50,[2],NE (NE indicates less than 50% inhibition at 30 μM.)
same,"activity at all receptors (GluN2A to GluN2D), in words",[3],inactive
same,GluN2D IC50,[4],NE (NE indicates less than 50% inhibition at 30 μM.)
same,GluN2B IC50,[5],NE (NE indicates less than 50% inhibition at 30 μM.)
same,GluN2A IC50,[6],NE (NE indicates less than 50% inhibition at 30 μM.)
